According to US20110136897A1, “TOLL-LIKE RECEPTOR 9 AGONISTS FOR THE TREATMENT OF ANXIETY-RELATED DISORDERS AND INFLAMMATORY DISORDERS” (YISSUM RESEARCH DEVELOPMENT COMPANY OF THE HEBREW …, priority 2008, published 2011):
In the oligonucleotide strings, read from the 5' end, every base follows the letter of its sugar. An asterisk marks phosphorothioate; unmarked linkages are phosphodiester. Other units and linkages are bracketed, terminal groups are in braces. A string of capitals states the bases alone. d = 2'-deoxy (DNA)

Experiments:
[1] = target: T1, glucocorticoid receptor (GR) (Mus musculus, UniProt P06537); assay: Glucocorticoid receptor whole cell [3H]dexamethasone binding assay, RAW264.7; format: cell-based; parameters: host or cells: RAW264.7 (mouse macrophage cell line)
T1 sequence (P06537 1-792): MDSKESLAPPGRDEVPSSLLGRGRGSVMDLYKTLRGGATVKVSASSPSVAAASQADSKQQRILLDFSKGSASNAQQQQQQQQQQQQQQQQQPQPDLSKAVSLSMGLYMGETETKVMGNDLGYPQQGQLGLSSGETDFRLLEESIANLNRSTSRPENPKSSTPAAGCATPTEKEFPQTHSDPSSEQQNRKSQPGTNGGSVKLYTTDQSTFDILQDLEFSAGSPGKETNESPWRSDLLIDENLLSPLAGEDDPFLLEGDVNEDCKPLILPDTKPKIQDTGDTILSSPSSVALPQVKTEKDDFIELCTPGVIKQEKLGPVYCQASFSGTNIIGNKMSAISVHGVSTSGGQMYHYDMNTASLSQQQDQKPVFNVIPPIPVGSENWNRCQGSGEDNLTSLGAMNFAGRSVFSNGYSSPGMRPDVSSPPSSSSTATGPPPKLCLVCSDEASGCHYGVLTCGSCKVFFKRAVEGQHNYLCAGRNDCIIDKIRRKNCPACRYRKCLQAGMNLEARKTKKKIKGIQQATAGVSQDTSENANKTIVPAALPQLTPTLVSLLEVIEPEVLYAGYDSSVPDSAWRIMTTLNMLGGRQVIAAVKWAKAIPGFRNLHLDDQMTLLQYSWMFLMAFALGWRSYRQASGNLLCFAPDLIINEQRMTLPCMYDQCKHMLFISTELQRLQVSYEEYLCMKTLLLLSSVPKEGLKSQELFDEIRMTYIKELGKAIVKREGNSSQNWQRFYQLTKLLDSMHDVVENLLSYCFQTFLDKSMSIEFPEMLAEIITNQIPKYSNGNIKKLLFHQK
Procedure: Glucocorticoid receptor assay: A whole cell binding assay was used to determine GR number and affinity. 0.7×10^6 RAW264.7 cells in 2 ml medium were grown in 24-wells plates until 80% confluence was obtained. After the appropriate treatment, the medium was replaced with a saturating concentration of 50 nM [^3H]dexamethasone (85.0 Ci/mmol) (Amersham Biosciences, NJ, USA) in 5 μM unlabeled dexamethasone (Sigma, Israel). After incubation for 2 hours at 37° C., cells were washed 6 times with cold PBS and lysed in 1M NaOH. Lysates were harvested and counted in a beta-spectrometer.
Since HSP90 modulates GR activity by increasing its affinity to glucocorticoids (GCs) it was wondered whether such an effect could be obtained by activating TLR9. In order to challenge that hypothesis, RAW264.7 cells were incubated with varying concentrations of hEN101 for 24 hours and the medium was subsequently replaced with one containing different concentration of 50 nM [^3H]dexamethasone and 5 μM unlabeled dexamethasone. After a 2 hour incubation, radioactivity was measured in a beta-spectrometer.

RAW264.7 cells [2] = assay: HSP90 and GR immunostaining and colocalization, confocal microscopy; format: cell-based, mouse; conditions: 24 h, 1-10 μM
Procedure: Immunohistochemistry: Cells were fixed with 4% PFA in phosphate-buffered saline (PBS) for 15 minutes at room temperature (RT), washed and transferred to 100% MetOH at −20° C. for 5 minutes. Afterwards, cells were washed twice with a blocking medium containing PBS, 1% bovine serum albumin (BSA) and 0.01% NaN3 and then were incubated for 1 hour at RT with anti-HSP90 and anti-GR antibodies (1:50) (Santa Cruz Biotechnology, CA). After incubation, cells were washed twice in blocking medium and incubated with 1:100 secondary antibodies (Jackson Immunoresearch Laboratories, PA). Slides were mounted onto glass slides and visualized by confocal microscopy.

RAW264.7 cells [3] = assay: Nitric oxide (NO) production, Griess reaction; format: cell-based, mouse; conditions: for effect on 10 μM mEN101-driven increases in NO: added with 10 μM mEN101
Procedure: The mouse macrophage cell line RAW 264.7 (ATCC, Bethesda, Md.) was cultured in Dulbecco's modified Eagle's medium (DMEM) (Biological Industries) supplemented with 10% heat-inactivated fetal bovine serum (Biological Industries, Israel), 100 μg/ml streptomycin, 100 U/ml penicillin (Sigma) and 2 mM 1-glutamine (Biological Industries) at 37° C. in a humidified atmosphere with 5% CO2.
Determination of nitric oxide (NO) production: Nitrite concentration in the medium of cultured cells was measured as an indicator of NO production according to the Griess reaction. 1×10^5 mouse RAW264.7 cells were grown in 0.5 ml medium in 48-wells plate until 80% confluence was obtained. […] (1% sulfanilamide, 0.1% naphthylethylenediamine dihydrochloride, 5% H3PO4). Absorbance was read at 540 nm after 10 min using SPECTRAFluor Plus spectrophotometer (TECAN, UK).
To further characterize the TLR9 activating features of mEN101, mEN101 was applied to RAW264.7 cells (n=4 repeats) for 24 hours and the subsequent production of inflammatory markers was quantified. […] Addition of chloroquine (CQ), a weak base that perturbs endosomal pH and thus disturbs endosomal maturation, as well as the specific TLR9 inhibiting oligonucleotides ODN2088 and ODN TTAGGG (17), all blocked the 10 μM mEN101-driven increases in NO (p<0.015) (FIG. 2A). Thus, both gain and loss of function tests validated the nature of mEN101 as an endosomally active TLR9 activator, albeit a weak one.

RAW264.7 cells [4] = assay: Nitric oxide (NO) production, Griess reaction; format: cell-based, mouse; conditions: with 1 μM mEN101
splenocytes = assay: IFN-γ induction in splenocytes (ELISA); format: cell-based, mouse; conditions: mEN101 even at 10 μM doses
Procedure: Cell cultures: Spleens were removed from 5-6 week old FVB/N mice (Harlan Laboratories, Israel) and mashed until a homogeneous cell suspension was obtained. The suspension was centrifuged in a LSM Lymphocyte Separation Medium (MP Biomedicals, Solon, Ohio) and the mononuclear cell layer was separated. Cells were adjusted to a 5×10^6 cells/ml and cultured in RPMI 1640 (Biological Industries, Israel) supplemented with 5% FCS, […] L-glut, 100 μg/ml streptomycin, 100 U/ml penicillin and 5×10^−5 2-mercaptoethanol (Sigma, Israel).
ELISA: Serum was extracted by centrifuging blood in heparin-containing Microtainer LH vials (BD, Franklin Lakes, N.J.) for 10 minutes at 3000 g. Serum and cell-culture supernatants were analyzed for IL-1β, IL-6, TNF-α and IFN-γ using respective ELISA Ready-SET-Go (eBioscience, San Diego, Calif.) kits as instructed. Intensities were read using a Tecan SPECTRAFluor Plus spectrophotometer (Mannedorf, Switzerland).

RAW264.7 cells [5] = assay: LPS-induced NO production with or without corticosterone after ODN1826 pre-incubation; format: cell-based, mouse; conditions: 10 or 50 mM corticosterone, LPS 1 μg/ml, 24 hours
Procedure: Determination of nitric oxygen (NO) production: The nitrite concentration in the medium was measured as an indicator of NO production according to the Griess reaction. 1×10^5 RAW264.7 cells were grown in 0.5 ml medium in 48-wells plate until 80% confluence was obtained. […] (1% sulfanilamide, 0.1% naphthylethylenediamine dihydrochloride, 5% H3PO4). Absorbance was read at 540 nm after 10 minutes using SPECTRAFluor Plus spectrophotometer (TECAN, UK).
In order to study the functional effects of TLR9 activation on GR signaling, RAW264.7 cells were incubated with varying concentrations of ODN1826 (SEQ ID NO: 2) for 24 hours and the medium was replaced with one containing LPS (1 μg/ml) with or without […] corticosterone (CORT) for an additional 24 hours. As expected, CORT blocked lipopolysaccharide (LPS)-induced NO production.

RAW264.7 cells [6] = assay: RT-PCR of inflammatory genes in RAW264.7 cells (Table 2); format: cell-based, mouse; conditions: 1 ug/ml
Procedure: Real-time PCR (RT-PCR): Brains were dissected and tissues stored frozen at −70° C. until use. Hippocampal RNA was extracted using the RNeasy Tissue Mini Kit (Qiagen, Germany). Total RNA was reverse-transcribed (200 ng) using Impromp-II reverse transcriptase (Promega, Madison, Wis.) as instructed. RT-PCR was performed using Power SYBR®Green PCR Master Mix (Applied Biosystems, UK) in a 7900 HT Sequence Detection System (Applied Biosystems, Foster City, Calif.). Quantification was assessed at the logarithmic phase of the PCR reaction. The PCR annealing temperature was 60° C. for all primer pairs. GAPDH was used as a house-keeping gene.
Shown are fold differences in RT-PCR products of RAW264.7 cells incubated with the noted doses of mEN101 or ODN1826. Note that ODN1826 affects IL1α, -1β, -6, -10, -12 and ICAM-1 gene expression at concentrations as low as 10 nM, whereas considerably higher doses of mEN101 are needed to attain similar effects. Nevertheless, mEN101 affects inflammatory gene expression even at 10 nM. 1 μg/ml LPS was used as positive control. (n=3, p<0.05 Mann-Whitney U-test compared to untreated controls, for all the data shown).

## 5′-CTGCCACGTTCTCCTGCA*C*C*-3′ [hEN101]
[1]; 10 μM per FIG. 10D legend
  DEX (GR) Bmax, Scatchard plot analysis: increased
[1]; 24 hours pre-incubation
  concentration from which effects on [3H]dexamethasone incorporation are detectable: ≥ 1 µM
[1]; 24 hours pre-incubation, dose-dependent
  whole cell [3H]dexamethasone incorporation / binding: increased [^3H]dexamethasone incorporation
RAW264.7 cells [2]
  GR level: not GR
  colocalization of HSP90 and GR signals: increased colocalization of HSP90 and GR signals
RAW264.7 cells [2]; dose dependent
  HSP90 level: upregulated HSP90

## 5′-TTTAGGGTTAGGGTTAGGGTTAGGG-3′ (dT*dT*dT*dA*dG*dG*dG*dT*dT*dA*dG*dG*dG*dT*dT*dA*dG*dG*dG*dT*dT*dA*dG*dG*dG) [ODN TTAGGG]
RAW264.7 cells [3]
  effect on 10 μM mEN101-driven increases in NO: blocked
RAW264.7 cells [4]
  effect on mEN101 effects on NO production (FIG. 2A legend): abolished

## 5′-ggGGTCAACGTTGAgggggg (GGGGTCAACGTTGAGGGGGG; listed as DNA, chemistry not given here) [ODN1585, type-A CpG ODN, Invivogen]
splenocytes
  induction of IFN-γ: stronger for ODN1585 than ODN1826
RAW264.7 cells [3]; 24 hours
  NO production at doses parallel to ODN1826 (10-100 nM): totally ineffective
  dose needed to initiate detectable NO overproduction: 10 µM

## C[C@]12C[C@H](O)[C@H]3[C@@H](CCC4=CC(=O)CC[C@@]43C)[C@@H]1CC[C@@H]2C(=O)CO [CORT, corticosterone]
RAW264.7 cells [5]
  LPS-induced NO production: blocked

## CCN(CC)CCCC(C)Nc1ccnc2cc(Cl)ccc12 (centres unmarked) [chloroquine]
RAW264.7 cells [3]
  effect on 10 μM mEN101-driven increases in NO: blocked
RAW264.7 cells [4]
  effect on mEN101 effects on NO production (FIG. 2A legend): abolished

## lipopolysaccharide [LPS, reference compound]
RAW264.7 cells [6]
  ICAM-1 RT-PCR product: −3.74 log2 from NT
  IL1a RT-PCR product: 8.86 log2 from NT
  IL1b RT-PCR product: 5.42 log2 from NT
  IL6 RT-PCR product: 3.81 log2 from NT
  IL10 RT-PCR product: 3.20 log2 from NT
  IL12 RT-PCR product: 8.75 log2 from NT
